Patent publication US20230113037A1 (Bayer Aktiengesellschaft, priority 2019, published 2023)
Where two headings read alike, the source gives them in different places.

Assays:
AHR [1] = molecular target: T1, AHR (Homo sapiens, UniProt P35869); experiment: In vitro assay 1: antagonism in human cell line (AHR transactivation, firefly luciferase reporter, kynurenic acid prestimulated); type: cell-based; conditions: AHR Antagonism Human IC50 [M]
T1 construct: U87 MG glioblastoma cells (ATCC #HTB-14) endogenously expressing AHR; endogenous in cells; host or cells: U87 MG glioblastoma cells (ATCC #HTB-14)
T1 sequence (P35869 11-848): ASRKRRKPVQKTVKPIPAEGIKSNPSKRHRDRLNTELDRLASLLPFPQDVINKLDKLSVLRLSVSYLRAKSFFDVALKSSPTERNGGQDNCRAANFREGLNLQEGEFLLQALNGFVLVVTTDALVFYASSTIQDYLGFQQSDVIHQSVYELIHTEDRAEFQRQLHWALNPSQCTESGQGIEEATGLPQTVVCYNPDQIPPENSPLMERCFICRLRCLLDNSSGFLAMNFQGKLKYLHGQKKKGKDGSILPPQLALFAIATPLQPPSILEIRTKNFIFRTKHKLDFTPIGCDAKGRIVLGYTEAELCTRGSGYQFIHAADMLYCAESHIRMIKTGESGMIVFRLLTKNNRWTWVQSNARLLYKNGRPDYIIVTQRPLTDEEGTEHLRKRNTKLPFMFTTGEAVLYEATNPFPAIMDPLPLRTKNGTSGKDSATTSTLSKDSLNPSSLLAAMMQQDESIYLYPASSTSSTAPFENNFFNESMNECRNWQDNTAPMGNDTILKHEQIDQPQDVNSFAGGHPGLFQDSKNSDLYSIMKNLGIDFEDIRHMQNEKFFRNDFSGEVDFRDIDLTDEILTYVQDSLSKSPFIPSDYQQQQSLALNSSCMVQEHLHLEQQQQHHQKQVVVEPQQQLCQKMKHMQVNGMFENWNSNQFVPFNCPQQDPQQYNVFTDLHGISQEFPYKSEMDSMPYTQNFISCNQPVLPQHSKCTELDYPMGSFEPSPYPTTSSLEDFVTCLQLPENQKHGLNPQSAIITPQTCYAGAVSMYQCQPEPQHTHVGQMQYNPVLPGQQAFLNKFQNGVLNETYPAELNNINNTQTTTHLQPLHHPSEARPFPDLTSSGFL
Method in brief: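 Antagonism is measured against kynurenic acid prestimulation in U87 MG glioblastoma cells carrying stable DRE-luciferase and Renilla reporters. Positive inhibition control: 150 μM kynurenic acid with 5 μM staurosporine. Values are normalized to controls; repeats are averaged or given as medians.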

AHR [2] = molecular target: T2, AHR (Mus musculus, UniProt P30561); experiment: In vitro assay 3: antagonism in mouse cell line (AHR transactivation, firefly luciferase reporter, kynurenic acid prestimulated); type: cell-based
T2 sequence (P30561 1-848 P471L/N533S/M589L): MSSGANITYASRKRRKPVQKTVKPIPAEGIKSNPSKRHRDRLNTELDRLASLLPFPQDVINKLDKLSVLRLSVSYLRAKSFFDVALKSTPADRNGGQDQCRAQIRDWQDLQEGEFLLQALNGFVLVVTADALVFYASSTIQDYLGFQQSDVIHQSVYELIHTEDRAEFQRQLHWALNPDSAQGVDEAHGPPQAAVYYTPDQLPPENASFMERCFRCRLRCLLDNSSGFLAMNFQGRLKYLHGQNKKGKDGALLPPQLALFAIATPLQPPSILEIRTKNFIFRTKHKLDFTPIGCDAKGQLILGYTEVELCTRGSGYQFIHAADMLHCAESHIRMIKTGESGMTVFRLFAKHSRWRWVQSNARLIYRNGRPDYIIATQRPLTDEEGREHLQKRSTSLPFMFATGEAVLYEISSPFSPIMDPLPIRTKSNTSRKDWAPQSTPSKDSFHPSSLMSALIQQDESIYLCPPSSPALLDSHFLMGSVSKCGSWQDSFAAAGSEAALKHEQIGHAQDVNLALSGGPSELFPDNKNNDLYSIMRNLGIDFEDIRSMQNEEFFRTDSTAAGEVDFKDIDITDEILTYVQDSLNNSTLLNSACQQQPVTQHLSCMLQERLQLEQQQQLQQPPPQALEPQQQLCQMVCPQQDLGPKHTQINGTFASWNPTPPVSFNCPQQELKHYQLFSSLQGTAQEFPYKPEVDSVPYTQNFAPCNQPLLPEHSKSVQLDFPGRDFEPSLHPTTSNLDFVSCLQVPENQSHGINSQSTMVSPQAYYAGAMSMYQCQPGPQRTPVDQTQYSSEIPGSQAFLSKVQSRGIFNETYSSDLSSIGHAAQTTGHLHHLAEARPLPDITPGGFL
Method in brief: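 Kynurenic acid-prestimulated mouse reporter cells; stable AHR-inducible firefly luc construct with DRE sites in promoter. No-agonist wells = positive inhibition ctrl. Luminescence normalized to pos/neg ctrls; n>1 reported as mean or median.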

[3] = mouse Hepa 1c1c7 cells, 200 μM kynurenic acid, 20 hours, read-out: AHR Antagonism Mouse IC50
[4] = read-out: AHR Antagonism Mouse IC50, mouse Hepa 1c1c7 cells, 200 μM kynurenic acid, 20 hours

| IC50 (AHR [1]) | IC50 (AHR [2]; [3]) | SMILES | IC50 (AHR [2]; [4]) |
| --- | --- | --- | --- |
| 1.28e-07 M | 230 nM | O=C1NCCCC[C@H]1Nc1nc2c(F)cccc2c2nc(-c3ccncc3)nn12 [Example 552, (3R)-3-{[7-fluoro-2-(pyridin-4-yl)[1,2,4]triazolo[1,5-c]quinazolin-5-yl]amino}azepan-2-one] | – |
| 7.68e-09 M | 2.45 nM | O=C1NCCCC[C@H]1Nc1nc2c(Cl)cccc2c2nc(-c3ccc(F)cc3)nn12 [Example 554, (3R)-3-{[7-chloro-2-(4-fluorophenyl)[1,2,4]triazolo[1,5-c]quinazolin-5-yl]amino}azepan-2-one] | – |
| 1.82e-08 M | 6.92 nM | O=C1NCCCC[C@H]1Nc1nc2c(Cl)cccc2c2nc(-c3cccc(F)c3)nn12 [Example 555, (3R)-3-{[7-chloro-2-(3-fluorophenyl)[1,2,4]triazolo[1,5-c]quianzolin-5-yl]amino}azepan-2-one] | – |
| 5.96e-09 M | 0.276 nM | N#Cc1ccc(-c2nc3c4cccc(Br)c4nc(N[C@@H]4CCCCNC4=O)n3n2)cc1 [Example 558, 4-(7-bromo-5-{[(3R)-2-oxoazepan-3-yl]amino}[1,2,4]triazolo[1,5-c]quinazolin-2-yl)benzonitrile] | – |
| 5.14e-09 M | 10.4 nM | N#Cc1ccc(-c2nc3c4cccc(Br)c4nc(N[C@H]4CCCCNC4=O)n3n2)cc1 [Example 559, 4-(7-bromo-5-{[(3S)-2-oxoazepan-3-yl]amino}[1,2,4]triazolo[1,5-c]quinazolin-2-yl)benzonitrile] | – |
| 3.8e-09 M | 5.57 nM | N#Cc1ccc(-c2nc3c4cccc(Br)c4nc(N[C@@H]4CCCNC4=O)n3n2)cc1 [Example 560, 4-(7-bromo-5-{[(3R)-2-oxopiperidin-3-yl]amino}[1,2,4]triazolo[1,5-c]quinazolin-2-yl)benzonitrile] | – |
| 3.96e-09 M | 7.55 nM | N#Cc1ccc(-c2nc3c4cccc(Br)c4nc(N[C@@H]4CCNC4=O)n3n2)cc1 [Example 561, 4-(7-bromo-5-{[(3R)-2-oxopyrrolidin-3-yl]amino}[1,2,4]triazolo[1,5-c]quinazolin-2-yl)benzonitrile] | – |

Continued, molecule first:

| SMILES | IC50 (AHR [1]) | IC50 (AHR [2]; [3]) | IC50 (AHR [2]; [4]) |
| --- | --- | --- | --- |
| Cn1cc(-c2nc3c4cccc(F)c4nc(N[C@@H]4CCCCNC4=O)n3n2)cn1 [Example 551, (3R)-3-{[7-fluoro-2-(1-methyl-1H-pyrazol-4-yl)[1,2,4]triazolo[1,5-c]quinazolin-5-yl]amino}azepan-2-one] | 1.17e-08 M | 13.8 nM | – |
| COc1ccc(-c2nc3c4cccc(Br)c4nc(N[C@@H](C(N)=O)C(C)C)n3n2)cc1 [Example 556, N^2-[7-bromo-2-(4-methoxyphenyl)[1,2,4]triazolo[1,5-c]quinazolin-5-yl]-D-valinamide] | 4.03e-10 M | 0.415 nM | – |
| CC[C@@H](Nc1nc2c(Br)cccc2c2nc(-c3ccc(OC)cc3)nn12)C(N)=O [Example 557, (2R)-2-{[7-bromo-2-(4-methoxyphenyl)[1,2,4]triazolo[1,5-c]quinazolin-5-yl]amino}butanamide] | 2.39e-10 M | 0.865 nM | – |
| CCC[C@@H](Nc1nc2c(Br)cccc2c2nc(-c3ccc(C#N)cc3)nn12)C(=O)NC [Example 562, N^2-[7-bromo-2-(4-cyanophenyl)[1,2,4]triazolo[1,5-c]quinazolin-5-yl]-N-methyl-D-norvalinamide] | 1.37e-09 M | 2.98 nM | – |
| CC[C@H](Nc1nc2c(Br)cccc2c2nc(-c3ccc(C#N)cc3)nn12)C(N)=O [Example 564, (2S)-2-{[7-bromo-2-(4-cyanophenyl)[1,2,4]triazolo[1,5-c]quinazolin-5-yl]amino}butanamide] | 1.23e-08 M | 17.5 nM | – |
| COc1ccc(-c2nc3c4cccc(Br)c4nc(N[C@@H]4CCCCNC4=O)n3n2)c(OC(F)(F)F)c1 [Example 565, (3R)-3-({7-bromo-2-[4-methoxy-2-(trifluoromethoxy)phenyl][1,2,4]triazolo[1,5-c]quinazolin-5-yl}amino)azepan-2-one] | 8.44e-09 M | 3.33 nM | – |
| COc1ccc(-c2nc3c4cccc(Br)c4nc(N[C@H]4CCCCNC4=O)n3n2)c(OC(F)(F)F)c1 [Example 566, (3S)-3-({7-bromo-2-[4-methoxy-2-(trifluromethoxy)phenyl][1,2,4]triazolo[1,5-c]quinazolin-5-yl}amino)azepan-2-one] | 1.76e-07 M | 20.8 nM | – |
| CC[C@@H](Nc1nc2c(Br)cccc2c2nc(-c3ccc(OC)cc3OC(F)(F)F)nn12)C(N)=O [Example 567, (2R)-2-({7-bromo-2-[4-methoxy-2-(trifluoromethoxy)phenyl][1,2,4]triazolo[1,5-c]quinazolin-5-yl}amino)butanamide] | 1.21e-08 M | – | 3.05 nM |
| CC[C@H](Nc1nc2c(Br)cccc2c2nc(-c3ccc(OC)cc3OC(F)(F)F)nn12)C(N)=O [Example 568, (2S)-2-({7-bromo-2-[4-methoxy-2-(trifluoromethoxy)phenyl][1,2,4]triazolo[1,5-c]quinazolin-5-yl}amino)butanamide] | 3.31e-07 M | – | 29.9 nM |
| COc1ccc(-c2nc3c4cccc(Br)c4nc(N[C@@H]4CCCCNC4=O)n3n2)c(C(F)(F)F)c1 [Example 569, (3R)-3-({7-bromo-2-[4-methoxy-2-(trifluoromethyl)phenyl][1,2,4]triazolo[1,5-c]quinazolin-5-yl}amino)azepan-2-one] | 8.4e-09 M | 4.3 nM | – |
| COc1ccc(-c2nc3c4cccc(Br)c4nc(N[C@H]4CCCCNC4=O)n3n2)c(C(F)(F)F)c1 [Example 570, (3S)-3-({7-bromo-2-[4-methoxy-2-(trifluoromethyl)phenyl][1,2,4]triazolo[1,5-c]quinazolin-5-yl}amino)azepan-2-one] | 8.08e-07 M | 80.7 nM | – |
| O=C1NCCCC[C@H]1Nc1nc2c(Br)cccc2c2nc(-c3ccc(Cl)cc3OC(F)(F)F)nn12 [Example 571, (3R)-3-({7-bromo-2-[4-chloro-2-(trifluoromethoxy)phenyl][1,2,4]triazolo[1,5-c]quinazolin-5-yl}amino)azepan-2-one] | > 2e-05 M | 10.1 nM | – |
| O=C1NCCCC[C@@H]1Nc1nc2c(Br)cccc2c2nc(-c3ccc(Cl)cc3OC(F)(F)F)nn12 [Example 572, (3S)-3-({7-bromo-2-[4-chloro-2-(trifluoromethoxy)phenyl][1,2,4]triazolo[1,5-c]quinazolin-5-yl}amino)azepan-2-one] | > 2e-05 M | 131 nM | – |
| CC[C@@H](Nc1nc2c(Br)cccc2c2nc(-c3ccc(Cl)cc3OC(F)(F)F)nn12)C(N)=O [Example 573, (2R)-2-({7-bromo-2-[4-chloro-2-(trifluoromethoxy)phenyl][1,2,4]triazolo[1,5-c]quinazolin-5-yl}amino)butanamide] | 3.36e-09 M | 1.39 nM | – |
| CC[C@H](Nc1nc2c(Br)cccc2c2nc(-c3ccc(Cl)cc3OC(F)(F)F)nn12)C(N)=O [Example 574, (2S)-2-({7-bromo-2-[4-chloro-2-(trifluoromethoxy)phenyl][1,2,4]triazolo[1,5-c]quinazolin-5-yl}amino)butanamide] | 5e-09 M | 1.07 nM | – |
